The experiment addresses T1, recombinant human CCR5 receptor (Homo sapiens, UniProt P51681).
T1 construct: expressed in transfected cells; host or cells: Chinese hamster ovary (CHO) cells; membranes
The experiment is described as follows: Radioligand binding assay for inhibition of the binding of MIP-1α. The note with it: displacement of 0.1 nM iodinated MIP-1α; membranes of Chinese hamster ovary cells expressing CCR5. Summed up: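 Membranes from CHO cells expressing recombinant human CCR5 were incubated with 0.1 nM iodinated MIP-1α, scintillation proximity beads and compound at various concentrations. Bound radioligand was measured by scintillation counting.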

T1 sequence (P51681 whole entry): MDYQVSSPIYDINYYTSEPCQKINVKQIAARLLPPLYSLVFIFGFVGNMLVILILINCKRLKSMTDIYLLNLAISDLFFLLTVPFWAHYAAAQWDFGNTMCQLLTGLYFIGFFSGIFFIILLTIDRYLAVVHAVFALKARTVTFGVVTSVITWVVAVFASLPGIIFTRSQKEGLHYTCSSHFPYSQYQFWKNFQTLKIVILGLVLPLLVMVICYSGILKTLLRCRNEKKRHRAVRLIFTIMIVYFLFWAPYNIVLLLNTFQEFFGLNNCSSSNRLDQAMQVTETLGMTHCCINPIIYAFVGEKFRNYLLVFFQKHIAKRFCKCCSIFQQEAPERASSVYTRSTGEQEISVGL

Turning to `CS(=O)(=O)c1ccc(CCCN2CCC[C@@H](CN3CCN(C(=O)Nc4ccc(Cl)c(Cl)c4)CC3)C2)cc1` [Example 328, N-(3,4-Dichlorophenyl)-4-[((3R)-1-{3-[4-(methylsulfonyl)phenyl]propyl}piperidin-3-yl)methyl]piperazine-1-carboxamide], the IC50 – broadly, the point on the concentration scale where inhibition reaches its midpoint – is under 10 µM.
